Literature values as cited in publication PMC8198792, “Prediction of Anticancer Peptides with High Efficacy and Low Toxicity by Hybrid Model Based on 3D Structure of Peptides” (International Journal of Molecular Sciences, 2021).
Like-named read-outs stand apart in the source and are kept apart here.

System: cancer cell lines
Design: method as in 6 sources, ref CancerPPD [45] and SATPdb ||| ref CancerPPD/SATPdb ||| ref CancerPPD, SATPdb, Swissprot (PDB) ||| ref CancerPPD/SATPdb/Swissprot(PDB) ||| ref CancerPPD / SATPdb ||| ...
Conditions: cited from earlier work
Source text: Supplement ijms-22-05630-s001.zip/ACPs(seguence).xlsx, sheet "D1" | column: Activity || Supplement ijms-22-05630-s001.zip/ACPs(seguence).xlsx, sheet "D2" | column: Activity || Supplement ijms-22-05630-s001.zip/ACPs(seguence).xlsx, sheet "D3" | column: Activity || (+ 2 further places)

[1] = ACPs dataset D1, 1 = ACP (positive), 0 = non-ACP (negative), label taken from databases, ref CancerPPD [45] and SATPdb
[2] = ACPs dataset D4 (sheet "D4"), label 1 = ACP (CancerPPD ID), 0 = non-ACP (non-anticancer AMP, SATPdb ID), ref CancerPPD [45] and SATPdb
[3] = ACPs dataset D4 (sheet "D4"), label 1 = ACP, experimentally validated ACPs, ref CancerPPD [45] and SATPdb
[4] = ACPs dataset D5 (sheet "D5"), label 1 = ACP (positive set), sequences with CancerPPD/SATPdb ID, ref CancerPPD, SATPdb
[5] = ACPs dataset sheet D2, 1 = ACP (CancerPPD/SATPdb ID), 0 = non-ACP (Swissprot/PDB ID), ref CancerPPD, SATPdb, Swissprot (PDB)
[6] = ACPs dataset D3 (supplement sheet "D3"), 1 = ACP, 0 = non-ACP, ref CancerPPD [45] and SATPdb
[7] = ACPs dataset D5 (sheet "D5"), label 1 = ACP (positive set), 0 = non-ACP (negative set), ref CancerPPD [45] and SATPdb
[8] = ACPs dataset D1, label 1 = ACP, 0 = non-ACP (non-anticancer AMPs from SATPdb), ref CancerPPD/SATPdb
[9] = ACPs dataset D4 (sheet "D4"), label 1 = ACP, 0 = non-ACP, ref CancerPPD / SATPdb
[10] = ACPs dataset D2 (supplement ACPs(seguence).xlsx, sheet D2), dataset label 1/0 (ACP / non-ACP), entries identified by Swissprot(PDB ID), ref CancerPPD/SATPdb/Swissprot(PDB)
[11] = ACPs dataset D5, sheet "D5", label 1 = ACP, 0 = non-ACP, ref CancerPPD [45] and SATPdb
[12] = ACPs dataset D3 (sheet "D3"), label 1 = ACP, 0 = non-ACP, ref CancerPPD/SATPdb

For ITIPPIVKNTLKKFIKGAVSALMS [satpdb11263], the Activity [1] is given as 0 and the Activity [2] is given as 0.
For MFFSSKKCKTVSKTFRGPCVRNA [satpdb11127], the Activity [1] is listed as 0 and the Activity [2] is listed as 0.
In the case of “MRKEFHNVLSSGQLLADKRPARDYNRK [compound 3072]”, the Activity [1] is listed as 1, the Activity [3] is listed as 1 and the Activity [4] is listed as 1. For the same substance, the Activity [5] was 1.
For GFLSILKKVLP [satpdb11215], the Activity [1] is given as 0 and the Activity [2] is given as 0.
For FKRiVQRiKDFlRNLV [compound 1530], the Activity [6] is given as 1, the Activity [3] is given as 1 and the Activity [4] is given as 1.
For CLGVGSCNDFAGCGYAIVCFW [satpdb11014], the Activity [1] is given as 0 and the Activity [2] is given as 0.
In the case of “GRRKRKWLRRIGKGVKIIGGAALDHL [compound 4351]”, the Activity [6] is listed as 1, the Activity [2] is listed as 1 and the Activity [7] is listed as 1.
In the case of GKWMSLWKHILK [compound 3657], the Activity [6] is listed as 1, the Activity [2] is listed as 1 and the Activity [7] is listed as 1.
In the case of “GIACGESCVFLGCFIPGCSCKSKVCYFN [compound 4397]”, the Activity [1] is listed as 1, the Activity [3] is listed as 1 and the Activity [4] is listed as 1. The Activity [5] was 1.
In the case of AWASFFKKAAHVGKHVGKAALTHYL [satpdb11738], the Activity [8] is given as 0 and the Activity [2] is given as 0.
For “KLCGETCFKFKCYTPGCSCSYPFCK [compound 4395]”, the Activity [1] is listed as 1, the Activity [3] is listed as 1 and the Activity [4] is listed as 1. For the same substance, the Activity [5] was 1.
In the case of NKWKKILGKIIKVVK [compound 3497], the Activity [6] is given as 1, the Activity [2] is given as 1 and the Activity [7] is given as 1.
For “GSKKPVPIIY CNRRTGKCQR M [5XO4 NMR - A 1-21]”, the Activity [7] is given as 0 and the Activity [5] is given as 0.
For KILRGVAKKIMRTFLRRILTGKK [compound 3321], the Activity [6] is listed as 1, the Activity [2] is listed as 1 and the Activity [7] is listed as 1.
For “GFGCPFNQYECHAHCSGVPGYKGGYCKGLFKQTCNCY [satpdb12844]”, the Activity [8] is given as 0 and the Activity [9] is given as 0.
For FLGMIPGLIGGLISAFK [compound 3125], the Activity [6] is given as 1, the Activity [3] is given as 1 and the Activity [4] is given as 1.
In the case of GVLSNVIGYLKKLGTGALNAVLKQ [satpdb12685], the Activity [8] is given as 0 and the Activity [2] is given as 0.
For GIGKFLHSAKKFAKAFVAEIMNS [compound 1047], the Activity [6] is listed as 1, the Activity [2] is listed as 1 and the Activity [7] is listed as 1.
In the case of GMWKKILGKLIR [compound 3643], the Activity [6] is listed as 1, the Activity [2] is listed as 1 and the Activity [7] is listed as 1.
For “SDQGDVAEPKMHKTAPPFDFEAIPEEYLDDES [3B23 X-ray 2.40 C 1-32]”, the Activity [7] is listed as 0 and the Activity [5] is listed as 0.
For GLLGPLLKIAAKVGSNLL [compound 4417], the Activity [1] is given as 1, the Activity [3] is given as 1 and the Activity [4] is given as 1. The Activity [5] was 1.
In the case of “FLPIIAGAAAKVVEKIFCAISKKC [compound 4357]”, the Activity [1] is given as 1, the Activity [3] is given as 1 and the Activity [4] is given as 1. For the same substance, the Activity [5] was 1.
For “GRVPYPRGGLLkLLKklLKKLlKL [compound 3587]”, the Activity [6] is listed as 1, the Activity [2] is listed as 1 and the Activity [7] is listed as 1.
For “SGSDGGVCPKILKKCRRDSDCPGACICRGNGYCG [1HA9 NMR - A 1-34]”, the Activity [7] is given as 0 and the Activity [5] is given as 0.
For “GVPICGETCTLGTCYTAGCSCSWPVCTRN [compound 4421]”, the Activity [1] is given as 1, the Activity [3] is given as 1 and the Activity [4] is given as 1. For the same substance, the Activity [5] was 1.
For “DGVKLCDVPSGTWSGHCGSSSKCSQQCKDREHFAYGGACHYQFPSVKCFCKRQC [2N2Q NMR - A 1-54]”, the Activity [10] is given as 0 and the Activity [11] is given as 0.
For GVVDILKGAAKDLAGHLATKVMNKL [satpdb14637], the Activity [12] is listed as 0, the Activity [9] is listed as 0 and the Activity [11] is listed as 0.
For KNWKKILGKIIKVVK [compound 3509], the Activity [6] is listed as 1, the Activity [2] is listed as 1 and the Activity [7] is listed as 1.
In the case of MLQNSAVLLLLVISASA [satpdb10067], the Activity [1] is listed as 1, the Activity [3] is listed as 1 and the Activity [4] is listed as 1. For the same substance, the Activity [5] was 1.
For KWCFCVCYRGICYCRCRG [satpdb12871], the Activity [8] is given as 0 and the Activity [9] is given as 0.
For “MDIYVCTVCGYEYDPAKGDPDSGIKPGTKFEDLPDDWACPVCGASKDAFEKQ [2DSX X-ray 0.68 A 1-52]”, the Activity [10] is listed as 0 and the Activity [11] is listed as 0.
For “KILRGVAKKIMRTFLRRISKDILTGKK [compound 3325]”, the Activity [6] is given as 1, the Activity [2] is given as 1 and the Activity [7] is given as 1.
For “GGLKKLGKKLEGAGKRVFNAAEKALPVVAGAKALG [satpdb11024]”, the Activity [1] is given as 0 and the Activity [2] is given as 0.
For FKCRRWQWRMKKLGAPSITCVR [compound 1352], the Activity [1] is given as 1, the Activity [3] is given as 1 and the Activity [4] is given as 1. The Activity [5] was 1.
In the case of FLPIIGQLLSGLL [satpdb10701], the Activity [6] is listed as 0, the Activity [9] is listed as 0 and the Activity [11] is listed as 0.
For FLSLIPSLVGGSISAFK [compound 3123], the Activity [6] is listed as 1, the Activity [3] is listed as 1 and the Activity [4] is listed as 1.
For “KWKSFLKTFKSlKKTVLHTLLKAISS [compound 3769]”, the Activity [6] is given as 1, the Activity [2] is given as 1 and the Activity [7] is given as 1.
In the case of “GILDKLKEFGISAARGVAQSLLNTTASCKLAKTC [satpdb13132]”, the Activity [8] is listed as 0 and the Activity [9] is listed as 0.
For “CSNLSTCVLGKLSQELHKLQTYPRTDVGAGTP [1BKU NMR - A 1-32]”, the Activity [7] is listed as 0 and the Activity [5] is listed as 0.
For ILPFKFPFFPFRR [satpdb11203], the Activity [1] is given as 0 and the Activity [2] is given as 0.
For GLFDVIKKVASVIGGL [compound 1421], the Activity [6] is listed as 1, the Activity [2] is listed as 1 and the Activity [7] is listed as 1.
For VOLKfPVOLfP [satpdb14846], the Activity [12] is listed as 0, the Activity [9] is listed as 0 and the Activity [11] is listed as 0.
In the case of SSSGWLCTLTIECGTIICACR [satpdb10412], the Activity [1] is given as 0 and the Activity [2] is given as 0.
In the case of “GECEQCFSDGGDCTTCFNNGTGPCANCLAGYPAGCSNSDCTAFLSQCYGGC [1HA8 NMR - A 1-51]”, the Activity [10] is listed as 0 and the Activity [11] is listed as 0.
For FLPVVAGLAAKVLPSIICAVTKKC [satpdb12902], the Activity [8] is listed as 0 and the Activity [9] is listed as 0.
In the case of PRFWEYWLRAME [compound 4586], the Activity [1] is listed as 1, the Activity [3] is listed as 1 and the Activity [4] is listed as 1. For the same substance, the Activity [5] was 1.
For “AEDCVGRKACTREWYPVCGSDGVTYSNPCNFSAQQEQCDPNITIAHMGEC [2N71 NMR - A 1-50]”, the Activity [10] is listed as 0 and the Activity [7] is listed as 0.
For KKLFKKilkYL [satpdb14386], the Activity [12] is given as 0, the Activity [9] is given as 0 and the Activity [11] is given as 0.
For “KFCEKPSGTWSGVCGNSGACKDQCIRLEGAKHGSCNYKLPAHRCICYYEC [satpdb13047]”, the Activity [8] is listed as 0 and the Activity [9] is listed as 0.
In the case of FLGALLGPLMNLLQ [satpdb14038], the Activity [12] is given as 0, the Activity [9] is given as 0 and the Activity [11] is given as 0.
In the case of “MKVRSSVKKMCDNCKVVRRHGRVLVICSNVKHKQRQG [2ZJR X-ray 2.91,4,1-37]”, the Activity [10] is given as 0 and the Activity [7] is given as 0.
In the case of KAAKKAWKWAKKAAKWAKKAA [compound 4479], the Activity [1] is listed as 1, the Activity [3] is listed as 1 and the Activity [4] is listed as 1. For the same substance, the Activity [5] was 1.
For TLPFAYCNIHQVCHYAQRNDRSYWL [satpdb12859], the Activity [1] is given as 1, the Activity [3] is given as 1 and the Activity [4] is given as 1. For the same substance, the Activity [5] was 1.
In the case of GLFDIIKKIAESF [compound 1252], the Activity [6] is listed as 1, the Activity [2] is listed as 1 and the Activity [7] is listed as 1.
In the case of FLPAIAGMAAKFLPKIFCAISKKC [satpdb12699], the Activity [8] is given as 0 and the Activity [9] is given as 0.
In the case of NVWKKILGKIIKVVK [compound 4347], the Activity [6] is given as 1, the Activity [2] is given as 1 and the Activity [7] is given as 1.
For “GLWSKIKEAAKAAGKAALNAVTGLVNQGDQPS [compound 4452]”, the Activity [1] is listed as 1, the Activity [3] is listed as 1 and the Activity [4] is listed as 1. The Activity [5] was 1.
For GKWMSLLKHWLK [compound 3656], the Activity [6] is listed as 1, the Activity [2] is listed as 1 and the Activity [7] is listed as 1.
For “FDVNSHTTPCGPVTCSGAQMCEVDKCVCSDLHCKVKCEHGFKKDDNGCEYACICADAPQ [1EJA X-ray 2.70 B 1-59]”, the Activity [10] is listed as 0 and the Activity [11] is listed as 0.
For “MNQGKIWTVVNPAIGIPALLGSVTVIAILVHLAILSHTTWFPAYWQGGVKKAA [1KZU X-ray 2.50 A/D/G 1-53]”, the Activity [10] is listed as 0 and the Activity [11] is listed as 0.
In the case of FLPVIAGLAAKVLPKLFCAITKKC [satpdb12195], the Activity [8] is given as 0 and the Activity [2] is given as 0.
